# Data as given in paper PMC6160049 (PLoS ONE, 2018).
# How the values were obtained:
# [1] = Peptide with mannose lipid (ML-C14) plasma stability analysis; conditions: for dynantin remaining in rat plasma / dynantin degradation in rat plasma: 37 °C, RP-HPLC, UV 210 nm; for dynantin remaining in rat plasma: relative to T-zero; for dynantin degradation in rat plasma: 48 h
# Text: (§1) Female Sprague Dawley rats were purchased from Charles River (QC, Canada). Rats were housed at the Laurentian University Animal Care Facility and supplied with food and water ad libitum. All experimental protocols were approved by the Health Sciences North Research Institute biosafety committee and the Laurentian University animal care committee. Blood was collected from rats under a surgical plane of anesthesia using isoflurane via cardiac puncture. Rats were then euthanized by excess isoflurane in addition to the severing of the descending aorta and cutting of the diaphragm. Blood was immediately mixed with an ethylenediaminetetraacetic acid solution (Fisher Scientific, Fairlawn NJ,0.1 M, 5 mM final concentration) and stored on ice until being centrifuged at 2,100 x G and 4 °C for 10 minutes. The top plasma layer was removed, aliquoted and stored at -80 °C.
# (§2) Dynantin samples were analyzed at a constant solvent flow rate of 0.7 mL/min at 35 °C using a binary gradient (Table 1). Solvent A consisted of a 25% solution of acetonitrile (HPLC grade Fisher Scientific) in ddH2O (0.2 μm filtered) and solvent B consisted of acetonitrile, with each solvent containing 0.1% trifluoroacetic acid (v/v, protein sequencing grade, Sigma Aldrich, Fairlawn NJ).
# (§3) MDP samples were analyzed at a constant solvent flow rate of 1.0 mL/min at 35 °C using a binary gradient (Table 2). Solvent A consisted of ddH2O (0.2 μm filtered) and solvent B consisted of methanol (MeOH) (HPLC grade, Fisher Scientific, Fairlawn NJ), with each solvent containing 0.1% formic acid (v/v, LC/MS grade, Fisher Scientific).
# Peptide stability in combination with ML-C14 was investigated using a modified version of the above noted procedure. Aliquots of dynantin or MDP were first combined with varying amounts of ML-C14 (in THF, 20 μL total addition), and then thoroughly mixed before the addition of thawed rat plasma (88 μL). A control sample was also prepared by combining each peptide with THF alone (20 μL) and plasma (88 μL). Samples were incubated at 37 °C in a heating mantle for varying lengths of time before being stored at -80 °C. For HPLC analysis, samples were thawed, thoroughly mixed, diluted in MeOH to destroy liposome particles (1/10 for dynantin, 1/5 for MDP), and solids pelleted by centrifugation at 10,000 rpm and 20 °C for 5 min. The supernatants were carefully removed for analysis (8 μL injections, in duplicate). Stability is represented as the percentage of peptide remaining relative to the amount determined at T-zero.
# in vitro = experiment: in vitro
# Text: as §1, §2, §3
# thawed rat plasma = conditions: Female Sprague Dawley rats, 37 °C, up to 24 hours
molecule,measurement,setting,value
"CC(=O)N[C@H]1C(O)O[C@H](CO)[C@@H](O)[C@@H]1O[C@H](C)C(=O)N[C@@H](C)C(=O)N[C@H](CCC(=O)O)C(N)=O (stereo partly shown) [MDP, muramyl dipeptide]",degradation of MDP in rat plasma,[1],Complete degradation
same,degradation of MDP in rat plasma,in vitro,completely degraded
same,metabolised at 12 h,"in vitro; female, Sprague Dawley, rat, plasma",~60%
CC[C@H](C)[C@H](NC(=O)[C@H](CCCN=C(N)N)NC(=O)[C@H](CCCN=C(N)N)NC(=O)[C@H](CC(C)C)NC(=O)[C@H](Cc1ccccc1)NC(=O)CNC(=O)CNC(=O)[C@@H](C)Cc1c(C)cc(O)cc1C)C(=O)N[C@@H](CCCN=C(N)N)C(=O)N1CCC[C@H]1C(=O)N[C@@H](CCCCN)C(N)=O [dynantin],dynantin remaining in rat plasma,"[1]; with ML-C14, peptide:glycolipid 1:4, EDTA rat plasma 88 μL, 12 h, diluted 1/10 in MeOH, mean ± SEM of three experiments",21 ± 4%
same,dynantin remaining in rat plasma,"[1]; with ML-C14, peptide:glycolipid 1:4, rat plasma, 24 h",no detectable peptide
same,dynantin remaining in rat plasma,"[1]; with ML-C14, peptide:glycolipid 1:8, rat plasma, 12 h, mean ± SEM of three experiments",62 ± 4%
same,dynantin remaining in rat plasma,"[1]; with ML-C14, peptide:glycolipid 1:8, rat plasma, 24 h, mean ± SEM of three experiments",20 ± 3%
same,dynantin degradation in rat plasma,"[1]; with ML-C14, peptide:glycolipid 1:8, rat plasma",completely degraded
same,dynantin remaining in rat plasma,"[1]; with ML-C14, peptide:glycolipid 1:10, rat plasma, 12 h, mean ± SEM of three experiments",66 ± 6%
same,dynantin remaining in rat plasma,"[1]; with ML-C14, peptide:glycolipid 1:10, rat plasma, 24 h, mean ± SEM of three experiments",19 ± 4%
same,dynantin degradation in rat plasma,"[1]; with ML-C14, peptide:glycolipid 1:10, rat plasma",completely degraded
same,degradation of dynantin in rat plasma,"in vitro; peptide alone, EDTA rat plasma, 37 °C, 12 h, RP-HPLC, UV 210 nm, relative to T-zero, three experiments",complete dynantin degradation
(2S)-Mdp-G-G-F-L-R-R-I-R-P-K-NH2,cleaved bond,thawed rat plasma,"L-R and R-R, major and R-I"
